{"source": "patent US20150258043A1", "about": "“USE OF SPHINGOID LONG CHAIN BASES AND THEIR ANALOGS IN TREATING AND PREVENTING BACTERIAL INFECTIONS” (YEDA RESEARCH AND DEVELOPMENT CO. LTD., priority 2012, published 2015)", "key": {"[1]": {"test_system": "sphingosine and ceramide on tracheal and bronchial epithelial cells", "test": "Sphingosine and ceramide levels in airway epithelial cells after inhalation (immunostaining, in situ kinase assays)", "set-up": "species or system mouse", "settings": "CF (and CerS2 null) mice, in vivo inhalation", "description": "Sphingosine levels were determined in the trachea and lung of wildtype (wt), Cftr- and CerS2 null mice (Teichgräber, V. et al. Nat Med 2008, 14, 382-391; Pewzner-Jung et al. J Biol Chem. 2010 Apr. 2; 285(14):10902-10) and human nasal tissues by (i) confocal microscopy analysis of paraffin sections stained with Cy3-coupled anti-sphingosine antibodies and (ii) by newly developed biochemical assays that employed sphingosine kinase assays to determine sphingosine in freshly isolated tracheal epithelial cells and on the surface of tracheal epithelial cells in situ. In the latter experiments the intact trachea was carefully opened and incubated with sphingosine kinase in the presence of [^32]PγATP. Lipids were extracted and the concentration of sphingosine-1-[^32]P was determined. In addition, surface sphingosine was immunoprecipitated from the surface of tracheal epithelial cells by binding of anti-sphingosine antibodies to the intact inner surface of the trachea, followed by washing, lysis, immobilization of immune complexes, extraction of bound sphingosine and quantification of sphingosine by kinase assays. […]\nMice were sacrificed and the trachea immediately removed. […] The TLC plates were exposed to radiography films, the spots were removed from the plates, and the incorporation of [^32P] into ceramide was measured by liquid scintillation counting. […]"}, "[2]": {"test_system": "P. aeruginosa strain 762", "test": "Effect of LCBs on P. aeruginosa growth in vitro (colony counts)", "assay_type": "cell-based, Pseudomonas aeruginosa", "settings": "Pseudomonas aeruginosa", "description": "P. aeruginosa strain 762 or ATCC 27853 were grown in LB medium at 37° C. until the early logarithmic phase (OD550 0.2). Bacteria were then diluted in PBS to a concentration of 5×10^3 CFU/ml. Stock solutions of sphingolipids (5 mM in 7.5% n-Octyl-β-D-Glucopyranoside (OGP) or in DMSO were prepared by sonication. Sphingolipids were added to the bacteria (0.1-50 μM in 0.075% OGP or 1% DMSO). Bacteria were incubated with sphingolipids for 2 hr at 37° C. and a sample of 200 μl bacteria solution were plated on LB agar plates, incubated overnight at 37° C. and colonies were counted.\nThe direct effect of sphingosine and other sphingoid long chain bases (LCBs) on the growth of P. aeruginosa was examined in vitro. Bacteria were incubated with a variety of LCBs and the EC50 values on bacterial growth were determined (Table 1)."}}, "note": "Where two headings read alike, the source gives them in different places.", "data": [{"smiles": "CCCCCCCCCCCCC/C=C/[C@@H](O)[C@@H](N)CO", "note": "(stereo in doubt) [D-erythro-Sphingosine, (2S,3R)-2-aminooctadec-4-ene-1,3-diol]", "values": [{"measurement": "sphingosine levels on airway epithelial cells after inhalation", "setting": "[1]", "result": "restored sphingosine levels"}, {"measurement": "EC50", "setting": "[2]; 762, Table 3, Example 3, method of Example 2, n=3 for each analog, given as ranges, read-out: EC50", "result": "0.5 to 1", "unit": "µM"}, {"measurement": "EC50", "setting": "[2]; P. aeruginosa strain 762, 2 hrs at 37° C. in 0.075% OGP, colonies counted, at least 3 independent experiments, read-out: EC50 (μM) ± S.D.", "result": "0.5 ± 0.1", "unit": "µM"}]}]}
